Blank lines part the entries; values can stand above or below the compound they belong to. Active and inactive are the calls of the source. The rule behind the calls is not given here.
Experiments:
V79 [1] = assay: Cytotoxicity against chinese hamster V79 cells under anaerobic condition at 2.0 uM after 7 days by crystal violet staining; type: functional, Cricetulus griseus
V79 [2] = assay: Hypoxic cytotoxicity ratio, concentration required to kill 99% chinese hamster V79 cells under aerobic condition to hypoxic condition; type: functional, Cricetulus griseus
V79 [3] = assay: Cytotoxicity against chinese hamster V79 cells under aerobic condition at 30 uM after 7 days by crystal violet staining; type: functional, Cricetulus griseus
Nucleic Acid [4] = assay: Induction of DNA cleavage in supercoiled pGL2 DNA assessed as open circular DNA form-2 under hypoxic condition with NADPH:cytochrome P450 enzyme system at 5 to 25 uM after 16 hrs by agarose gel electrophoresis; type: nucleic-acid assay
Nucleic Acid [5] = assay: Induction of DNA cleavage in supercoiled pGL2 DNA assessed as open circular DNA form-2 under hypoxic condition with NADPH:cytochrome P450 enzyme system at 25 uM after 16 hrs by agarose gel electrophoresis in presence of radical scavenging agent t-butanol; type: nucleic-acid assay
Nucleic Acid [6] = assay: Induction of DNA cleavage in supercoiled pGL2 DNA assessed as open circular DNA form-2 under hypoxic condition with NADPH:cytochrome P450 enzyme system at 25 uM after 16 hrs by agarose gel electrophoresis in presence of radical scavenging agent DMSO; type: nucleic-acid assay
Nucleic Acid [7] = assay: Induction of DNA cleavage in supercoiled pGL2 DNA assessed as open circular DNA form-2 under hypoxic condition with xanthine/xanthine oxidase enzyme system at 20 uM after 16 hrs by agarose gel electrophoresis; type: nucleic-acid assay
Nucleic Acid [8] = assay: Induction of DNA cleavage in supercoiled pGL2 DNA assessed as open circular DNA form-2 under hypoxic condition with NADPH:cytochrome P450 enzyme system at 25 uM after 16 hrs by agarose gel electrophoresis in presence of radical scavenging agent methanol; type: nucleic-acid assay
V79 [9] = assay: Cytotoxicity against chinese hamster V79 cells under aerobic condition at 2.5 uM after 7 days by crystal violet staining; type: functional, Cricetulus griseus
Nucleic Acid [10] = assay: Induction of DNA cleavage in supercoiled pGL2 DNA assessed as open circular DNA form-2 under hypoxic condition with NADPH:cytochrome P450 enzyme system at 25 uM after 16 hrs by agarose gel electrophoresis in presence of radical scavenging agent mannitol; type: nucleic-acid assay
Nucleic Acid [11] = assay: Induction of DNA cleavage in supercoiled pGL2 DNA assessed as open circular DNA form-2 under hypoxic condition with NADPH:cytochrome P450 enzyme system at 25 uM after 16 hrs by agarose gel electrophoresis in presence of radical scavenging agent ethanol; type: nucleic-acid assay
V79 [12] = assay: Cytotoxicity against chinese hamster V79 cells under anaerobic condition at 0.21 uM after 7 days by crystal violet staining; type: functional, Cricetulus griseus

Compound: Nc1n[n+]([O-])c2ccccc2[n+]1[O-] [TIRAPAZAMINE]
Activity (V79 [1]): 99%
Ratio (V79 [2]): 75
Activity (V79 [3]): 99%

Activity (Nucleic Acid [4]): inactive
Compound: O=C(c1cccs1)c1nc2cc(Cl)ccc2[n+]([O-])c1C(F)(F)F

Activity (Nucleic Acid [4]): inactive
Compound: O=C(c1cccs1)c1c(C(F)(F)F)nc2ccc(Cl)cc2[n+]1[O-]

Activity (Nucleic Acid [5]): inactive
Activity (Nucleic Acid [6]): inactive
Activity (Nucleic Acid [7]): Active
Activity (Nucleic Acid [4]): Active
Activity (Nucleic Acid [8]): inactive
Activity (Nucleic Acid [10]): inactive
Activity (Nucleic Acid [11]): inactive
Compound: O=C(c1cccs1)c1c(C(F)(F)F)[n+]([O-])c2ccc(Cl)cc2[n+]1[O-]
Ratio (V79 [2]): 16
Activity (V79 [9]): 99%
Activity (V79 [12]): 99%
